Inhibition data for 8 compounds are collected here from patent US20260125359A1, “HETEROARYL COMPOUNDS AS MULTI-TARGET PROTEIN KINASE INHIBITORS” (FUJIAN HAIXI PHARMACEUTICALS CO., LTD., priority 2023, published 2026).

Structures are written as SMILES.

For one assay, the target named is KIT (Homo sapiens, UniProt P10721). The assay can be described thus: KIT in vitro kinase activity assay (HTRF kinEASE TK). It counts as biochemical. To be noted: for inhibition at 0.01 µM: compound 10 nM, read-out: KIT inhibition rate, 10 nM; for inhibition at 0.1 µM: compound 100 nM, read-out: KIT inhibition rate, 100 nM. The source says: (§1) CSF-1R, PDGFR-α, KDR (VEGFR2) and KIT in vitro Kinase Activity Assay:
(§2) • ENVISION (Perkinelmer, 2104) • White 384-well MicroPlate (Cat #264706, Nunc) • HTRF kinEASE TK kit main reagents (Cat #62TKOPEC, Cisbio) • TK-biotin substrate • Streptavidin-XL665 • TK Antibody-Cryptate • 5× Enzymatic buffer (5×KB) • Staphylococcal enterotoxin B (SEB) • HTRF Detection buffer • CSF-1R (Cat #PV3249, Invitrogen) • PDGFR-α (Cat #PV3811, Invitrogen) • KDR (Cat #PV3660, Invitrogen) • KIT (Cat #08-156, Carna) • ATP 10 mM (Cat #PV3227, Invitrogen) • DTT 1 M (Cat #D5545, Sigma) • MgCl2 1 M (Cat #M8266, Sigma) • MnCl2 1 M (Cat #244589, Sigma)
(§3) Dilute Substrate-TK and ATP to 5× of the reaction concentration using 1× Kinase Buffer.
(§4) Prepare the 5× enzyme working solution using 1× Kinase Buffer.
(§5) Prepare the 4×Sa-XL665 working solution using Detection Buffer.
(§6) Dilute TK-Ab-Cryptate 100 times using Detection Buffer to prepare the working solution.
(§7) After all reagents were prepared according to the methods described above, except for the enzyme, they were equilibrated to room temperature before starting the sample addition. • a) First, 2.5% DMSO solutions were prepared separately using the pre-prepared 1× kinase buffer (DMSO concentrations that were too high could affect the reaction, so the final concentration of DMSO was controlled at 1%). Then, the corresponding 2.5% DMSO solution for the enzyme was used to dilute the test compounds. Compounds were screened with two concentrations of 100 nM and 10 nM. Except for the control wells, 4 μL of the diluted test compound solution was added to the reaction wells, and 4 μL of the pre-prepared 2.5% DMSO solution was added to the control wells. • b) 2 μL of the pre-prepared TK-biotin substrate solution at the corresponding concentration for the kinase was added to all reaction wells. • c) 2 μL of the pre-prepared enzyme solution at the corresponding concentration was added to all reaction wells except the negative control wells. For the negative control wells, 2 μL of 1× kinase buffer corresponding to the enzyme was added to make up the volume. The plate was sealed with sealing film, mixed gently, and incubated at room temperature for 10 min to allow the compounds to fully interact with the enzyme. • d) 2 μL of the ATP solution at the corresponding concentration for the enzyme was added to all reaction wells to initiate the kinase reaction. ATP concentrations and reaction times for enzyme screening are shown in Table 26 • e) Five minutes before the end of the kinase reaction, the detection solution was prepared. The detection buffer from the kit was used to prepare detection solutions for Streptavidin-XL665 and TK antibody europium cryptate (1:100) at the appropriate concentrations for the two enzymes. • f) After the kinase reaction was completed, 5 μL of the diluted Streptavidin-XL665 solution was added to all reaction wells. After mixing, the diluted TK antibody europium cryptate detection solution was immediately added. • g) The plate was sealed and mixed, incubated at room temperature for 1 hour, and the fluorescence signal was detected using the ENVISION (PerkinElmer) instrument (excitation at 320 nm, emission at 665 nm and 615 nm). The inhibition rate for each well was calculated based on the full-activity control wells and background signal wells, and the average value of the replicates was taken.

The target in the next assay is PDGFR-α (Homo sapiens, UniProt P16234). Briefly: PDGFR-α in vitro kinase activity assay (HTRF kinEASE TK). Conditions: for inhibition at 0.01 µM: compound 10 nM, read-out: PDGFRα inhibition rate, 10 nM; for inhibition at 0.1 µM: compound 100 nM, read-out: PDGFRα inhibition rate, 100 nM. The format is biochemical.
Description: as §1, §2, §3, §4, §5, §6, §7

Another assay deals with DDR1 (Homo sapiens, UniProt Q08345). The assay can be described thus: DDR1 in vitro kinase activity assay (LanthaScreen Eu-anti-GST antibody / Kinase Tracer 178). It counts as binding. To be noted: for inhibition at 0.01 µM: compound 10 nM, read-out: DDR1 inhibition rate, 10 nM; for inhibition at 0.1 µM: compound 100 nM, read-out: DDR1 inhibition rate, 100 nM. The method, then: DDR1 in vitro Kinase Activity Assay:
• ENVISION (Perkinelmer, 2104) • White 384-well MicroPlate (Cat #264706, Nunc) • DDR1 (Cat #PV6047, Invitrogen) • 5× Kinase Buffer A (Cat #PV3189, Invitrogen) • Kinase Tracer 178 (Cat #PV5593, Invitrogen) • LanthaScreen® Eu-anti-GST Antibody (Cat #PV5594, Invitrogen)
The compounds to be tested were tested at two concentrations of 100 nM and 10 nM.
Kinase/Antibody Mixtures Preparation: Dilute Kinase/Antibody Mixtures with 1× Kinase Buffer to form 3× working solutions with final concentrations of 5 nM kinase and 2 nM Eu-Anti-GST Antibody, respectively.
Kinase Tracer 178 Preparation: Dilute Kinase Tracer 178 with 1× Kinase Buffer to make a 3× working solution with a final concentration of 10 nM.
After all reagents were prepared according to the methods described above, except for the enzyme, they were equilibrated to room temperature before starting the sample addition. • a) First, 3% DMSO solutions were prepared separately using the pre-prepared 1× kinase buffer (DMSO concentrations that were too high could affect the reaction, so the final concentration of DMSO was controlled at 1%). Then, the corresponding 3% DMSO solution for the enzyme was used to dilute the test compounds. Compounds were screened with two concentrations of 100 nM and 10 nM. Except for the control wells, 5 μL of the diluted test compound solution was added to the reaction wells, and 5 μL of the pre-prepared 3% DMSO solution was added to the control wells. • b) 5 μL of the pre-prepared Kinase/Antibody mixtures was added to all reaction wells except the negative control wells. For the negative control wells, 5 μL of 1× kinase buffer corresponding to the enzyme was added to make up the volume. • c) 5 μL of the pre-prepared Kinase Tracer 178 solution was added to all reaction wells. • d) The plate was sealed and mixed, incubated at room temperature for 1 hour, and the fluorescence signal was detected using the ENVISION (PerkinElmer) instrument (excitation at 340 nm, emission at 665 nm and 615 nm). The inhibition rate for each well was calculated based on the full-activity control wells and background signal wells, and the average value of the replicates was taken.

The target of a further assay is KDR (VEGFR2) (Homo sapiens, UniProt P35968). The assay can be described thus: KDR (VEGFR2) in vitro kinase activity assay (HTRF kinEASE TK). The format is biochemical. Conditions: for inhibition at 0.01 µM: compound 10 nM, read-out: VEGFR2 inhibition rate, 10 nM; for inhibition at 0.1 µM: compound 100 nM, read-out: VEGFR2 inhibition rate, 100 nM.
Description: as §1, §2, §3, §4, §5, §6, §7
(In TR-FRET formats the signal depends on donor and acceptor labels being close together.)

A further assay deals with CSF-1R (Homo sapiens, UniProt P07333). The assay can be described thus: CSF-1R in vitro kinase activity assay (HTRF kinEASE TK). The format is biochemical. To be noted: for inhibition at 0.01 µM: compound 10 nM, read-out: CSF-1R inhibition rate, 10 nM; for inhibition at 0.1 µM: compound 100 nM, read-out: CSF-1R inhibition rate, 100 nM.
Description: as §1, §2, §3, §4, §5, §6, §7

DDR1, sequence (Q08345 19-913): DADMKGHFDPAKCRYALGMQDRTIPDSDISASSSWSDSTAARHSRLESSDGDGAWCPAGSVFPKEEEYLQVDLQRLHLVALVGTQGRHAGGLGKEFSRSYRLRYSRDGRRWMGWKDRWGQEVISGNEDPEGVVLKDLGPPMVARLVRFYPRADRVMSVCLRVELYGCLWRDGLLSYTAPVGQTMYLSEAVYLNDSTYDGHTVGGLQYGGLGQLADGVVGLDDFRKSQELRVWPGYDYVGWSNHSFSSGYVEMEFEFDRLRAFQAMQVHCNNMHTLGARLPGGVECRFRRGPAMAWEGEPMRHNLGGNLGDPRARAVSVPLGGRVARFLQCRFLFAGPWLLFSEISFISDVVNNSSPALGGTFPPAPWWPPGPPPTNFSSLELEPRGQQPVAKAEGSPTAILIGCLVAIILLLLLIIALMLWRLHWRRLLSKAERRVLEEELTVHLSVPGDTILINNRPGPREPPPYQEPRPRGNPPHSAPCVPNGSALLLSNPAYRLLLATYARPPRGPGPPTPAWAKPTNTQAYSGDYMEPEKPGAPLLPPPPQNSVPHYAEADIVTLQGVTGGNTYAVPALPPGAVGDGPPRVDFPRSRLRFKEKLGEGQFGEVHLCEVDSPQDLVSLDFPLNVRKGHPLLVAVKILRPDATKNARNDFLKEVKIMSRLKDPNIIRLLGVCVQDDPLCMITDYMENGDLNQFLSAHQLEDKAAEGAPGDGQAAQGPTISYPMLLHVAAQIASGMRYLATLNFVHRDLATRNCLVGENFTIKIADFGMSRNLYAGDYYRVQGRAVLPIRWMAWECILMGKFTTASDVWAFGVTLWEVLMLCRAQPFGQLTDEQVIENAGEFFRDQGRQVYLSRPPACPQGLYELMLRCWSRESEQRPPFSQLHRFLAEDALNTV
PDGFR-α, sequence (P16234 24-1089): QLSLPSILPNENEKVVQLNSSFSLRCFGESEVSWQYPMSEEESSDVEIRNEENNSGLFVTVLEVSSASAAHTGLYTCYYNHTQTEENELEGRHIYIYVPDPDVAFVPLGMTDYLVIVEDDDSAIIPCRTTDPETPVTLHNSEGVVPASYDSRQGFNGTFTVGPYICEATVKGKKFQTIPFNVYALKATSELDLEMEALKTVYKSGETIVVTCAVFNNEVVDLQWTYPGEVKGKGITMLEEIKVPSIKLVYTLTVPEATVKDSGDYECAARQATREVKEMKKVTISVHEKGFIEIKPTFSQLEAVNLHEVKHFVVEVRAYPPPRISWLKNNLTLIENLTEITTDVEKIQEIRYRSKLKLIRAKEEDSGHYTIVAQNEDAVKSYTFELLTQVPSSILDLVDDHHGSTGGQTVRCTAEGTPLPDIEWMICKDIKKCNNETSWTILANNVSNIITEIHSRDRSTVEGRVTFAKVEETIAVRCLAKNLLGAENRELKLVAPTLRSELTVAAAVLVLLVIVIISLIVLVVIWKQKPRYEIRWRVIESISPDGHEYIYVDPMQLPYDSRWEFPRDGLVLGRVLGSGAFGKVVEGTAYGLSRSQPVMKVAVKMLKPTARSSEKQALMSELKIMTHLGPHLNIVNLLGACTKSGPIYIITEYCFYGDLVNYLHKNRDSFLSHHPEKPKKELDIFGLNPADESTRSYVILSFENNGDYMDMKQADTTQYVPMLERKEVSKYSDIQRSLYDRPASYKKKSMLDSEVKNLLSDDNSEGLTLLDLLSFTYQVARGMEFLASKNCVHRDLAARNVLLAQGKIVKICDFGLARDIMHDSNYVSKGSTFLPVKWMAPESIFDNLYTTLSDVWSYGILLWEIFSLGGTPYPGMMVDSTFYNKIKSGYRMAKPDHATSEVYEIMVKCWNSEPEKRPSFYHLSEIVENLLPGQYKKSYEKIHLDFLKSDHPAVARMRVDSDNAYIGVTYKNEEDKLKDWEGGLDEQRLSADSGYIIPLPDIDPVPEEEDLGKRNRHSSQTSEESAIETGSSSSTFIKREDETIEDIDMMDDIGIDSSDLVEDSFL
KDR (VEGFR2), sequence (P35968 20-1356): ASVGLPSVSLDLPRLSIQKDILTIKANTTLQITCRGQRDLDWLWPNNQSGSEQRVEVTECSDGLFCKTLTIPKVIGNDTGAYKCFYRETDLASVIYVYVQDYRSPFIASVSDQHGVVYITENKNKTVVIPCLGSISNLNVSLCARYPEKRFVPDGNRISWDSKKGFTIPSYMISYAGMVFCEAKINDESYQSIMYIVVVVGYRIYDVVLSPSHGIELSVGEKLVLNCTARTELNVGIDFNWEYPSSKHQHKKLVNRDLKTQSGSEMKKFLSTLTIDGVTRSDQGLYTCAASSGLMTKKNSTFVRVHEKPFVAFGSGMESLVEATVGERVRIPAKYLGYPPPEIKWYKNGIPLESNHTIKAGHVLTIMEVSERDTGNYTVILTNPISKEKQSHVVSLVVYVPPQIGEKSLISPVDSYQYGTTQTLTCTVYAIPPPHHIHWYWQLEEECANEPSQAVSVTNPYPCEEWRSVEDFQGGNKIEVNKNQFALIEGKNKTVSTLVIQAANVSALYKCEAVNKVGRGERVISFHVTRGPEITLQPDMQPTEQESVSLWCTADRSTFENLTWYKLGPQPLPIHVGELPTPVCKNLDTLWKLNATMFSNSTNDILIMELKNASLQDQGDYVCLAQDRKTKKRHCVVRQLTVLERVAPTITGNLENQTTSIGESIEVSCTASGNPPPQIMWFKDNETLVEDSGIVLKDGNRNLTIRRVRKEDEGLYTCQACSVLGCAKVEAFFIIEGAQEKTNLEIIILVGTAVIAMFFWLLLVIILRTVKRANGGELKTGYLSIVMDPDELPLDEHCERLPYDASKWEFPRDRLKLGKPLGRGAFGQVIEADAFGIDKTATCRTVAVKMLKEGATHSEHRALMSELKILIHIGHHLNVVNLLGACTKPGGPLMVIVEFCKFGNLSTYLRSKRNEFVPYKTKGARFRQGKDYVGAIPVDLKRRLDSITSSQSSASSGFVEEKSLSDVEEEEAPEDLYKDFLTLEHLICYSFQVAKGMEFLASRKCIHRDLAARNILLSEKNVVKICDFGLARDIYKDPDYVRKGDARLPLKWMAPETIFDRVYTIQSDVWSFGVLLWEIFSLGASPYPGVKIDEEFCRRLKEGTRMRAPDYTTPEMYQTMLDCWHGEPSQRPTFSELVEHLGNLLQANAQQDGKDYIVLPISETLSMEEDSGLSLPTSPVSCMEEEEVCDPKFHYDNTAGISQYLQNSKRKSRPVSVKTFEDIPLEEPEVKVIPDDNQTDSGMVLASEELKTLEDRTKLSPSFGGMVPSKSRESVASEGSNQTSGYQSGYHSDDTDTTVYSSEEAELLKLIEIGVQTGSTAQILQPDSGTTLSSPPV
CSF-1R, sequence (P07333 20-972): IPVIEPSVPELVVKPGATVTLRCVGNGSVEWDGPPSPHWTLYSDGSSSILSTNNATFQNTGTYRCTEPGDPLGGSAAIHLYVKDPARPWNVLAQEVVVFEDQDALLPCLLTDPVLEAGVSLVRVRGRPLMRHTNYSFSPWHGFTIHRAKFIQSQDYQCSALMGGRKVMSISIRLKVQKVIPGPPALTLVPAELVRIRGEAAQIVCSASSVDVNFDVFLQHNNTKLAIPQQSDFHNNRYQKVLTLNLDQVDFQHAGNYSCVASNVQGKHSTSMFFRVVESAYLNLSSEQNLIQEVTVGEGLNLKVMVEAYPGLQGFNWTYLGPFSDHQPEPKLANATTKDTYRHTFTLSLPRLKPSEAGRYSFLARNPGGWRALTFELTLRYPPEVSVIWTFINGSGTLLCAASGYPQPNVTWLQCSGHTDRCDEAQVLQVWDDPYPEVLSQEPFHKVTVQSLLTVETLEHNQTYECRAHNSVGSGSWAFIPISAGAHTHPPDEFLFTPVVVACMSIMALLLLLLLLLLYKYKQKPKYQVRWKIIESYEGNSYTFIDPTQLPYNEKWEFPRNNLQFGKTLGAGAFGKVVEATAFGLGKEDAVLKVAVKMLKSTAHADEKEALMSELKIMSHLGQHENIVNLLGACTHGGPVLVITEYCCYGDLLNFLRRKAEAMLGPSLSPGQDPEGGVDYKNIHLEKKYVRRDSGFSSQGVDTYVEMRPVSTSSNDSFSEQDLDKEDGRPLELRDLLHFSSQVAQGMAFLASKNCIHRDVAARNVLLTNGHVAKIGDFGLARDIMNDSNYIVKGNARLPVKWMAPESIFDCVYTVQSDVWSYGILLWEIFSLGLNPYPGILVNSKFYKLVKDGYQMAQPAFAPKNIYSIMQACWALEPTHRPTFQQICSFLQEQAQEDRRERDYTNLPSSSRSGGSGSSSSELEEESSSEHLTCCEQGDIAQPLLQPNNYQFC

In general, inhibition refers to the drop in the measured response relative to a control, in per cent. For `Cn1cc(-c2cnc(N)c(O[C@H]3CCc4c(C(=O)Nc5cccc(C6CC6)c5)cccc43)c2)cn1` [Compound 4, (S)-1-((2-amino-5-(1-methyl-1H-pyrazol-4-yl)pyridin-3-yl)oxy)-N-(3-cyclopropylphenyl)-2,3-dihydro-1H-indene-4-carboxamide], the inhibition at 0.01 µM came out at 76.8% on KIT; 90.9% at PDGFR-α; 88.6% at DDR1; 97.8% on KDR (VEGFR2); 80.1% on CSF-1R. The inhibition at 0.1 µM on KIT is 99.2%; on PDGFR-α it was 96.8%; at DDR1 it was 98.2%; on KDR (VEGFR2), 100%; on CSF-1R, 89.8%.
For `Cc1cccc(NC(=O)c2cccc3c2CC[C@@H]3Nc2cncc(-c3cnn(C)c3)c2)c1` [Compound 13, (S)-1-((5-(1-methyl-1H-pyrazol-4-yl)pyridin-3-yl)amino)-N-(m-tolyl)-2,3-dihydro-1H-indene-4-carboxamide], the inhibition at 0.01 µM at KIT is 73%; on PDGFR-α, 78.7%; at DDR1, 90.2%; at KDR (VEGFR2) it was 95.3%; at CSF-1R, 79.9%. Also, the inhibition at 0.1 µM on KIT is 97.5%; on PDGFR-α it was 99.1%; at DDR1 it was 95.1%; on KDR (VEGFR2), 99.5%; at CSF-1R, 93.5%.
Regarding `Cn1cc(-c2cncc(N[C@H]3CCc4c(C(=O)Nc5cncc(Cl)c5)cccc43)c2)cn1` [Compound 14aa, (S)—N-(5-chloropyridin-3-yl)-1-((5-(1-methyl-1H-pyrazol-4-yl)pyridin-3-yl)amino)-2,3-dihydro-1H-indene-4-carboxamide], the inhibition at 0.01 µM stood at 61.9% on KIT; 72.7% on PDGFR-α; 93.2% on DDR1; 83.1% at KDR (VEGFR2); 74.6% at CSF-1R. In addition, the inhibition at 0.1 µM at KIT worked out at 97.3%; at PDGFR-α, 98.7%; on DDR1, 104%; on KDR (VEGFR2), 99.6%; at CSF-1R, 95.3%.
Consider `Cn1cc(-c2cncc(N[C@H]3CCc4c(C(=O)Nc5ccc(C(F)(F)F)nc5)cccc43)c2)cn1` [Compound 14ah], for which the inhibition at 0.01 µM at KIT was 11.3%; at PDGFR-α it was 67.6%; on DDR1, 37.9%; at KDR (VEGFR2) it was 26.8%; on CSF-1R, 41%. For the same compound, the inhibition at 0.1 µM stood at 83.3% on KIT; 99.4% on PDGFR-α; 85.6% at DDR1; 58.1% at KDR (VEGFR2); 101% at CSF-1R.
With `CN1CCc2ccc(NC(=O)c3cccc4c3CC[C@@H]4Nc3cncc(-c4cnn(C)c4)c3)cc2C1` [Compound 14ap], the inhibition at 0.01 µM at KIT amounted to 30.5%; at PDGFR-α, 72.8%; at DDR1, 75.8%; on KDR (VEGFR2) it was 14.7%; at CSF-1R it was 63.5%. Further, the inhibition at 0.1 µM came to 80.7% on KIT; 98.8% at PDGFR-α; 100% at DDR1; 66.2% at KDR (VEGFR2); 96.7% on CSF-1R.
`Cc1cncc(NC(=O)c2cccc3c2CC[C@@H]3Nc2cncc(-c3cnn(C)c3)c2)c1` [Compound 14as]: the inhibition at 0.01 µM amounted to 58.7% at KIT; 91% on PDGFR-α; 94.7% on DDR1; 88.4% on KDR (VEGFR2); 89.7% on CSF-1R. The inhibition at 0.1 µM at KIT came to 94.7%; on PDGFR-α, 101%; at DDR1 it was 103%; on KDR (VEGFR2) it was 102%; on CSF-1R, 97%.
On to `CN1CCc2nc(NC(=O)c3cccc4c3CC[C@@H]4Nc3cncc(-c4cnn(C)c4)c3)sc2C1` [Compound 14ba], for which the inhibition at 0.01 µM turned out to be 60.1% on KIT; 75.5% on PDGFR-α; 32.4% on DDR1; 29.2% on KDR (VEGFR2); 42.1% at CSF-1R. Further, the inhibition at 0.1 µM on KIT is 95%; at PDGFR-α, 100%; at DDR1, 61.4%; at KDR (VEGFR2), 82.6%; at CSF-1R, 95.9%.
As to `Cc1cccc(C(=O)Nc2cccc3c2CC[C@@H]3Oc2cncc(-c3cnn(C)c3)c2)c1` [Compound 15, (S)-3-methyl-N-(1-((5-(1-methyl-1H-pyrazol-4-yl)pyridin-3-yl)oxy)-2,3-dihydro-1H-inden-4-yl)benzamide], the inhibition at 0.01 µM at KIT came out at 13.3%; on PDGFR-α it was 39.6%; on DDR1, 15.9%; on KDR (VEGFR2), 60%; at CSF-1R, 49%. In addition, the inhibition at 0.1 µM at KIT came out at 31.6%; on PDGFR-α, 64%; on DDR1 it was 88%; on KDR (VEGFR2), 97.3%; at CSF-1R, 90.5%.
